Patent US6472348B1, “Pyridone derivatives and herbicides” (Kumiai Chemical Industry Co., Ltd., priority 1996, dated 2002)

Columns and labels:
Format in all cases: in vivo
barnyardgrass (Ec) [1] = test: Test Example 1: herbicidal effects by paddy field soil treatment; settings: 100 g of the active ingredient per 10 ares, 21st day after the application, index 0-5 of Table 47;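 note: grade of growth control; 5 = at least 90%; 4 = 70 to 90%; 3 = 50 to 70%; 2 = 30 to 50%; 1 = 10 to 30%; 0 = under 10%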
In short: (§1)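 Flooded paddy-soil pots (3 cm water) sown after puddling/leveling; treatment 100 g a.i./10 ares; greenhouse culture; herbicidal effect rated visually on a scoring scale at 21 d post-application.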

bulrush (Sc) = test: as above; settings: 100 g of the active ingredient per 10 ares, 21st day after the application, index 0-5 of Table 47;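 note: grade of growth control; 5 = at least 90%; 4 = 70 to 90%; 3 = 50 to 70%; 2 = 30 to 50%; 1 = 10 to 30%; 0 = under 10%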
In short: as §1

monochoria (Mo) = test: as above; settings: 100 g of the active ingredient per 10 ares, 21st day after the application, index 0-5 of Table 47;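 note: grade of growth control; 5 = at least 90%; 4 = 70 to 90%; 3 = 50 to 70%; 2 = 30 to 50%; 1 = 10 to 30%; 0 = under 10%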
In short: as §1

Digitaria ciliaris (Di) = test: Test Example 2: herbicidal effects by upland field soil treatment; settings: 100 g of the active ingredient per 10 ares;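 note: grade of growth control; 5 = at least 90%; 4 = 70 to 90%; 3 = 50 to 70%; 2 = 30 to 50%; 1 = 10 to 30%; 0 = under 10%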
Description: (§2) (Test on Herbicidal Effects by Upland Field Soil Treatment)

barnyardgrass (Ec) [2] = test: as above; settings: 100 g of the active ingredient per 10 ares
Description: as §2

[3] = tested on: common lambsquarters (Ch); test: as above; settings: 100 g of the active ingredient per 10 ares
Description: as §2

pale smartweed (Po) [4] = test: as above; settings: 100 g of the active ingredient per 10 ares
Description: as §2

rice flatsedge (Ci) [5] = test: as above; settings: 100 g of the active ingredient per 10 ares
Description: as §2

slender amaranth (Am) [6] = test: as above; settings: 100 g of the active ingredient per 10 ares
Description: as §2

Diaitaria ciliaris (Di) = test: Test Example 3: herbicidal effects by upland field foliage treatment; parameters: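 grade of growth control; 5 = at least 90%; 4 = 70 to 90%; 3 = 50 to 70%; 2 = 30 to 50%; 1 = 10 to 30%; 0 = under 10%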
In short: (§3)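 Seeds → sand pot (120 cm^2) → soil cover → greenhouse 2 wk → foliar treatment → greenhouse → herbicidal score at 14 d post-treatment against graded standards.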

barnyardgrass (Ec) [7] = test: as above; parameters: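 grade of growth control; 5 = at least 90%; 4 = 70 to 90%; 3 = 50 to 70%; 2 = 30 to 50%; 1 = 10 to 30%; 0 = under 10%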
In short: as §3

[8] = tested on: common lambsquarters (Ch); test: as above; parameters: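 grade of growth control; 5 = at least 90%; 4 = 70 to 90%; 3 = 50 to 70%; 2 = 30 to 50%; 1 = 10 to 30%; 0 = under 10%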
In short: as §3

pale smartweed (Po) [9] = test: as above; parameters: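 grade of growth control; 5 = at least 90%; 4 = 70 to 90%; 3 = 50 to 70%; 2 = 30 to 50%; 1 = 10 to 30%; 0 = under 10%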
In short: as §3

rice flatsedge (Ci) [10] = test: as above; parameters: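 grade of growth control; 5 = at least 90%; 4 = 70 to 90%; 3 = 50 to 70%; 2 = 30 to 50%; 1 = 10 to 30%; 0 = under 10%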
In short: as §3

slender amaranth (Am) [11] = test: as above; parameters: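 grade of growth control; 5 = at least 90%; 4 = 70 to 90%; 3 = 50 to 70%; 2 = 30 to 50%; 1 = 10 to 30%; 0 = under 10%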
In short: as §3

[12] = evaluated on the 21st day after application
[13] = 100 g active ingredient per 10 ares, evaluated 14th day after treatment
[14] = 21st day after the application, index 0-5 of Table 47
[15] = 100 g of the active ingredient per 10 ares, evaluated on the 14th day after treatment

Cn1c(C(F)(F)F)ccc(-c2c(Cl)cc(Cl)c3oc(CBr)cc23)c1=O [Compound 4-16]
5: Herbicidal effects Ec (barnyardgrass (Ec) [1]) | Herbicidal effects Sc (bulrush (Sc)) | Herbicidal effects Mo (monochoria (Mo)) | Herbicidal effects Di (Digitaria ciliaris (Di); [12]) | Herbicidal effects Ec (barnyardgrass (Ec) [2]; [12]) | Herbicidal effects Ch [3, 12] | Herbicidal effects Po (pale smartweed (Po) [4]; [12]) | Herbicidal effects Ci (rice flatsedge (Ci) [5]; [12]) | Herbicidal effects Am (slender amaranth (Am) [6]; [12]) | Herbicidal effects Di (Diaitaria ciliaris (Di); [13]) | Herbicidal effects Ec (barnyardgrass (Ec) [7]; [13]) | Herbicidal effects Ch [8, 13] | Herbicidal effects Po (pale smartweed (Po) [9]; [13]) | Herbicidal effects Ci (rice flatsedge (Ci) [10]; [13]) | Herbicidal effects Am (slender amaranth (Am) [11]; [13])

Cc1cc(-c2ccc(Cl)cc2Cl)c(=O)n(C)c1C(F)(F)F [Compound No. 1-11]
5: Herbicidal effects Ec (barnyardgrass (Ec) [1]) | Herbicidal effects Sc (bulrush (Sc)) | Herbicidal effects Mo (monochoria (Mo)) | Herbicidal effects Di (Digitaria ciliaris (Di); [14]) | Herbicidal effects Ec (barnyardgrass (Ec) [2]; [14]) | Herbicidal effects Ch [3, 14] | Herbicidal effects Po (pale smartweed (Po) [4]; [14]) | Herbicidal effects Ci (rice flatsedge (Ci) [5]; [14]) | Herbicidal effects Am (slender amaranth (Am) [6]; [14]) | Herbicidal effects Di (Diaitaria ciliaris (Di); [15]) | Herbicidal effects Ec (barnyardgrass (Ec) [7]; [15]) | Herbicidal effects Ch [8, 15] | Herbicidal effects Po (pale smartweed (Po) [9]; [15]) | Herbicidal effects Ci (rice flatsedge (Ci) [10]; [15]) | Herbicidal effects Am (slender amaranth (Am) [11]; [15])

CCSC(=O)c1cc(-c2ccc(C(F)(F)F)n(C)c2=O)c(F)cc1Cl [1-67]
5: Herbicidal effects Ec (barnyardgrass (Ec) [1]) | Herbicidal effects Sc (bulrush (Sc)) | Herbicidal effects Mo (monochoria (Mo)) | Herbicidal effects Di (Digitaria ciliaris (Di); [14]) | Herbicidal effects Ec (barnyardgrass (Ec) [2]; [14]) | Herbicidal effects Ch [3, 14] | Herbicidal effects Po (pale smartweed (Po) [4]; [14]) | Herbicidal effects Ci (rice flatsedge (Ci) [5]; [14]) | Herbicidal effects Am (slender amaranth (Am) [6]; [14]) | Herbicidal effects Di (Diaitaria ciliaris (Di); [15]) | Herbicidal effects Ec (barnyardgrass (Ec) [7]; [15]) | Herbicidal effects Ch [8, 15] | Herbicidal effects Po (pale smartweed (Po) [9]; [15]) | Herbicidal effects Ci (rice flatsedge (Ci) [10]; [15]) | Herbicidal effects Am (slender amaranth (Am) [11]; [15])

Cn1c(C(F)(F)F)ccc(-c2cc(C3OCCO3)c(Cl)cc2F)c1=O [1-133]
5: Herbicidal effects Ec (barnyardgrass (Ec) [1]) | Herbicidal effects Sc (bulrush (Sc)) | Herbicidal effects Mo (monochoria (Mo)) | Herbicidal effects Di (Digitaria ciliaris (Di); [14]) | Herbicidal effects Ec (barnyardgrass (Ec) [2]; [14]) | Herbicidal effects Ch [3, 14] | Herbicidal effects Po (pale smartweed (Po) [4]; [14]) | Herbicidal effects Ci (rice flatsedge (Ci) [5]; [14]) | Herbicidal effects Am (slender amaranth (Am) [6]; [14]) | Herbicidal effects Di (Diaitaria ciliaris (Di); [15]) | Herbicidal effects Ec (barnyardgrass (Ec) [7]; [15]) | Herbicidal effects Ch [8, 15] | Herbicidal effects Po (pale smartweed (Po) [9]; [15]) | Herbicidal effects Ci (rice flatsedge (Ci) [10]; [15]) | Herbicidal effects Am (slender amaranth (Am) [11]; [15])

CNS(=O)(=O)c1cc(-c2ccc(C(F)(F)F)n(C)c2=O)c(Cl)cc1Cl [Compound 1-256]
5: Herbicidal effects Ec (barnyardgrass (Ec) [1]) | Herbicidal effects Sc (bulrush (Sc)) | Herbicidal effects Mo (monochoria (Mo)) | Herbicidal effects Di (Digitaria ciliaris (Di); [12]) | Herbicidal effects Ec (barnyardgrass (Ec) [2]; [12]) | Herbicidal effects Ch [3, 12] | Herbicidal effects Po (pale smartweed (Po) [4]; [12]) | Herbicidal effects Ci (rice flatsedge (Ci) [5]; [12]) | Herbicidal effects Am (slender amaranth (Am) [6]; [12]) | Herbicidal effects Di (Diaitaria ciliaris (Di); [13]) | Herbicidal effects Ec (barnyardgrass (Ec) [7]; [13]) | Herbicidal effects Ch [8, 13] | Herbicidal effects Po (pale smartweed (Po) [9]; [13]) | Herbicidal effects Ci (rice flatsedge (Ci) [10]; [13]) | Herbicidal effects Am (slender amaranth (Am) [11]; [13])

CC=CCN1C(=O)COc2cc(F)c(-c3ccc(C(F)(F)F)n(C)c3=O)cc21 [Compound 2-12]
5: Herbicidal effects Ec (barnyardgrass (Ec) [1]) | Herbicidal effects Sc (bulrush (Sc)) | Herbicidal effects Mo (monochoria (Mo)) | Herbicidal effects Di (Digitaria ciliaris (Di); [12]) | Herbicidal effects Ec (barnyardgrass (Ec) [2]; [12]) | Herbicidal effects Ch [3, 12] | Herbicidal effects Po (pale smartweed (Po) [4]; [12]) | Herbicidal effects Ci (rice flatsedge (Ci) [5]; [12]) | Herbicidal effects Am (slender amaranth (Am) [6]; [12]) | Herbicidal effects Di (Diaitaria ciliaris (Di); [13]) | Herbicidal effects Ec (barnyardgrass (Ec) [7]; [13]) | Herbicidal effects Ch [8, 13] | Herbicidal effects Po (pale smartweed (Po) [9]; [13]) | Herbicidal effects Ci (rice flatsedge (Ci) [10]; [13]) | Herbicidal effects Am (slender amaranth (Am) [11]; [13])

C#CC(CC)Oc1cc(Cl)cc(F)c1-c1ccc(C(F)(F)F)n(C)c1=O (stereo not drawn) [1′-6]
5: Herbicidal effects Ec (barnyardgrass (Ec) [1]) | Herbicidal effects Sc (bulrush (Sc)) | Herbicidal effects Mo (monochoria (Mo)) | Herbicidal effects Di (Digitaria ciliaris (Di); [12]) | Herbicidal effects Ec (barnyardgrass (Ec) [2]; [12]) | Herbicidal effects Ch [3, 12] | Herbicidal effects Po (pale smartweed (Po) [4]; [12]) | Herbicidal effects Ci (rice flatsedge (Ci) [5]; [12]) | Herbicidal effects Am (slender amaranth (Am) [6]; [12]) | Herbicidal effects Di (Diaitaria ciliaris (Di); [13]) | Herbicidal effects Ec (barnyardgrass (Ec) [7]; [13]) | Herbicidal effects Ch [8, 13] | Herbicidal effects Po (pale smartweed (Po) [9]; [13]) | Herbicidal effects Ci (rice flatsedge (Ci) [10]; [13]) | Herbicidal effects Am (slender amaranth (Am) [11]; [13])

CCOC(=O)C(C)OC(=O)c1cc(-c2ccc(C(F)(F)F)n(C)c2=O)c(F)cc1Cl (racemic) [1-143]
5: Herbicidal effects Ec (barnyardgrass (Ec) [1]) | Herbicidal effects Sc (bulrush (Sc)) | Herbicidal effects Mo (monochoria (Mo)) | Herbicidal effects Di (Digitaria ciliaris (Di); [14]) | Herbicidal effects Ec (barnyardgrass (Ec) [2]; [14]) | Herbicidal effects Ch [3, 14] | Herbicidal effects Po (pale smartweed (Po) [4]; [14]) | Herbicidal effects Ci (rice flatsedge (Ci) [5]; [14]) | Herbicidal effects Am (slender amaranth (Am) [6]; [14]) | Herbicidal effects Di (Diaitaria ciliaris (Di); [15]) | Herbicidal effects Ec (barnyardgrass (Ec) [7]; [15]) | Herbicidal effects Ch [8, 15] | Herbicidal effects Po (pale smartweed (Po) [9]; [15]) | Herbicidal effects Ci (rice flatsedge (Ci) [10]; [15]) | Herbicidal effects Am (slender amaranth (Am) [11]; [15])

CCS(=O)(=O)Nc1cc(-c2ccc(C(F)(F)F)n(C)c2=O)c(F)cc1Cl [1-61]
5: Herbicidal effects Ec (barnyardgrass (Ec) [1]) | Herbicidal effects Sc (bulrush (Sc)) | Herbicidal effects Mo (monochoria (Mo)) | Herbicidal effects Di (Digitaria ciliaris (Di); [14]) | Herbicidal effects Ec (barnyardgrass (Ec) [2]; [14]) | Herbicidal effects Ch [3, 14] | Herbicidal effects Po (pale smartweed (Po) [4]; [14]) | Herbicidal effects Ci (rice flatsedge (Ci) [5]; [14]) | Herbicidal effects Am (slender amaranth (Am) [6]; [14]) | Herbicidal effects Di (Diaitaria ciliaris (Di); [15]) | Herbicidal effects Ec (barnyardgrass (Ec) [7]; [15]) | Herbicidal effects Ch [8, 15] | Herbicidal effects Po (pale smartweed (Po) [9]; [15]) | Herbicidal effects Ci (rice flatsedge (Ci) [10]; [15]) | Herbicidal effects Am (slender amaranth (Am) [11]; [15])
